Assay results published in patent USRE50957E1, “Molecular rheostat for cofactor balance” (The Regents of the University of California, priority 2016, dated 2026).

Tests used:
[1] = molecular target: G. stearothermophilus glyceraldehyde-3-phosphate dehydrogenase (GsGap, gapDH WT), wild type, SEQ ID NO:6 (Geobacillus stearothermophilus, UniProt P00362); test: Kinetics and cofactor specificity of wild type GsGap (gapDH WT); settings: cofactor, 50 mM tris pH 7.5, 340 nm
[2] = molecular target: G. stearothermophilus glyceraldehyde-3-phosphate dehydrogenase (GsGap) mutant mGapDH (mGap, gapDH M6), D34A/L35R/T36K relative to SEQ ID NO:6 (Geobacillus stearothermophilus, UniProt P00362, D34A/L35R/T36K); test: Kinetics and cofactor specificity of triple mutant mGap (mGapDH); format: biochemical, G. stearothermophilus ATCC12980; settings: 50 mM tris pH 7.5, 340 nm
Experimental: Enzyme activity and optimization. All of the enzymes used in this work were assayed. The enzymes were assayed in 50 mM tris buffer pH 7.5, 5 mM MgCl, and 5 mM KCl which mirrors the final reaction conditions. The activity of NAD(P)H producing or consuming reactions were monitored at 340 nm. The activity of ATP consuming enzymes were monitored using a coupled assay with Zwf and NADP^+ at 340 nm.
To implement the “molecular rheostat” module, GapDH enzyme was engineered that efficiently uses NADP^+. […] Although the cofactor specificity of GsGap has adjusted before by sequence-based design, the mutant only slightly preferred NADP^+ over NAD^+. To more strongly flip the cofactor specificity of GsGap the crystal structure was examined and basic residues introduced into the loop region proximate to the 2′OH of NAD′ that may help stabilize binding of a 2′ phosphate in NADP^+. A series of mutations were made altering residues D34, L35, and T36 of SEQ ID NO:6. The kinetics and specificity of the best enzyme, a D34A/L35R/T36K triple mutant (herein referred to as mGap), were obtained.

G. stearothermophilus glyceraldehyde-3-phosphate dehydrogenase (GsGap) mutant mGapDH (mGap, gapDH M6), D34A/L35R/T36K relative to SEQ ID NO:6, sequence (P00362 whole entry D34A/L35R/T36K): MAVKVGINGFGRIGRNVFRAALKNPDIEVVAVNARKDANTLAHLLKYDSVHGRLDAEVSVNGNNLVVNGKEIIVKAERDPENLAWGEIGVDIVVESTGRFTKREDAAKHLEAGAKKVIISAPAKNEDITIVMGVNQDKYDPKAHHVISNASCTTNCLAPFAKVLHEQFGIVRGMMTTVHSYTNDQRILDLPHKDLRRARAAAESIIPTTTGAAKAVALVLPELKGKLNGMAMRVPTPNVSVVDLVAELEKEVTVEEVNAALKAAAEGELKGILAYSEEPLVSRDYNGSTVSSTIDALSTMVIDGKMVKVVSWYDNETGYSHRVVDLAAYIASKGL
G. stearothermophilus glyceraldehyde-3-phosphate dehydrogenase (GsGap, gapDH WT), wild type, SEQ ID NO:6, sequence (P00362 whole entry): as the sequence (P00362 whole entry D34A/L35R/T36K) above, with A34D, R35L, K36T counted along it

NC(=O)c1ccc[n+]([C@@H]2O[C@H](COP(=O)([O-])OP(=O)(O)OC[C@H]3O[C@@H](n4cnc5c(N)ncnc54)[C@H](O)[C@@H]3O)[C@@H](O)[C@H]2O)c1 [NAD+, nicotinamide adenine dinucleotide]
Km [1]: 1500 ± 300 µM | kcat ([2]; cofactor varied): 0.2 ± 0.04 µM/min/mg | Km ([2]; cofactor): 600 ± 400 µM
